Measurements from patent US10072026B2, “Crystalline form of 3-((1R,3s,5S)-3-((7-((5-methyl-1H-pyrazol-3-yl)amino)-1,6-naphthyridin-5-yl)amino)-8-azabicyclo[3.2.1]octan-8-yl)propanenitrile” (priority 2015, dated 2018).

Legend:
JAK2 = JAK2 (Homo sapiens (Human), UniProt O60674); assay: LanthaScreen JAK biochemical assay (JAK2)
JAK3 = JAK3 (Homo sapiens (Human), UniProt P52333); assay: LanthaScreen JAK biochemical assay (JAK3)
JAK1 = JAK1 (Homo sapiens (Human), UniProt P23458); assay: LanthaScreen JAK biochemical assay (JAK1)
[1] = tested on: IL-4 induced STAT6 phosphorylation in THP-1 human monocytic cells; assay: Cellular JAK potency assay, THP-1
[2] = IL-4 induced STAT6 phosphorylation, THP-1 cells
[3] = THP-1 cells, IL-4 induced STAT6 phosphorylation

Chain of JAK2 (O60674 whole entry): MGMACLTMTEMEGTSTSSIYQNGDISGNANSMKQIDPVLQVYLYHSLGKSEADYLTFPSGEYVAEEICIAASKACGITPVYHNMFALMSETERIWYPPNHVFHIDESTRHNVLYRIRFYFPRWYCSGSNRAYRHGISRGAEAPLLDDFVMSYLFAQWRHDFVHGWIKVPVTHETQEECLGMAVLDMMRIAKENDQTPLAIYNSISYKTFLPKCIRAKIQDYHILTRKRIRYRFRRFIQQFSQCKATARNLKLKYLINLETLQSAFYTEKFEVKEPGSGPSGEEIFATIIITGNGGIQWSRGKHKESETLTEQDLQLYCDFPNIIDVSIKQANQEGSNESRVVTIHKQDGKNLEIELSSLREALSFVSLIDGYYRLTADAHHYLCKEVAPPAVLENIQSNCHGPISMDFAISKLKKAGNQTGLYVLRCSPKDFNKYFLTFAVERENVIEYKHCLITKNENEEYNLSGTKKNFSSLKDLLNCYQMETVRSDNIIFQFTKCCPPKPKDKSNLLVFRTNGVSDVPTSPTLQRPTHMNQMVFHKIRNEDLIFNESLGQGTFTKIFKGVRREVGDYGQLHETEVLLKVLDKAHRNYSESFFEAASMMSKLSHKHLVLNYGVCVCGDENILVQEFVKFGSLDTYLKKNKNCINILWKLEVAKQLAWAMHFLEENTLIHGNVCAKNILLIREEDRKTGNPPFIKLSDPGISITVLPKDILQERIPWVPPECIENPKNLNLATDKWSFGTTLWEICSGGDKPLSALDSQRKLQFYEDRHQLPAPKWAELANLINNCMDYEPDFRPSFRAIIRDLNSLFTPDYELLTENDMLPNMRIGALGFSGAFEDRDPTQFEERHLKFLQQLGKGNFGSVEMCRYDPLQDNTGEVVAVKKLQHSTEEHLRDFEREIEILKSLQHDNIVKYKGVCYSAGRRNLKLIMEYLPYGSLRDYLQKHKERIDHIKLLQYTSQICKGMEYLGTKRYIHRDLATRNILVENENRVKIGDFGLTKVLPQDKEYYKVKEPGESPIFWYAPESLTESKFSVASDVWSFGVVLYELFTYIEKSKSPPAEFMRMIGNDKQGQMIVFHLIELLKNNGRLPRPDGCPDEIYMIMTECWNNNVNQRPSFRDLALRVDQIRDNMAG
Chain of JAK1 (P23458 whole entry): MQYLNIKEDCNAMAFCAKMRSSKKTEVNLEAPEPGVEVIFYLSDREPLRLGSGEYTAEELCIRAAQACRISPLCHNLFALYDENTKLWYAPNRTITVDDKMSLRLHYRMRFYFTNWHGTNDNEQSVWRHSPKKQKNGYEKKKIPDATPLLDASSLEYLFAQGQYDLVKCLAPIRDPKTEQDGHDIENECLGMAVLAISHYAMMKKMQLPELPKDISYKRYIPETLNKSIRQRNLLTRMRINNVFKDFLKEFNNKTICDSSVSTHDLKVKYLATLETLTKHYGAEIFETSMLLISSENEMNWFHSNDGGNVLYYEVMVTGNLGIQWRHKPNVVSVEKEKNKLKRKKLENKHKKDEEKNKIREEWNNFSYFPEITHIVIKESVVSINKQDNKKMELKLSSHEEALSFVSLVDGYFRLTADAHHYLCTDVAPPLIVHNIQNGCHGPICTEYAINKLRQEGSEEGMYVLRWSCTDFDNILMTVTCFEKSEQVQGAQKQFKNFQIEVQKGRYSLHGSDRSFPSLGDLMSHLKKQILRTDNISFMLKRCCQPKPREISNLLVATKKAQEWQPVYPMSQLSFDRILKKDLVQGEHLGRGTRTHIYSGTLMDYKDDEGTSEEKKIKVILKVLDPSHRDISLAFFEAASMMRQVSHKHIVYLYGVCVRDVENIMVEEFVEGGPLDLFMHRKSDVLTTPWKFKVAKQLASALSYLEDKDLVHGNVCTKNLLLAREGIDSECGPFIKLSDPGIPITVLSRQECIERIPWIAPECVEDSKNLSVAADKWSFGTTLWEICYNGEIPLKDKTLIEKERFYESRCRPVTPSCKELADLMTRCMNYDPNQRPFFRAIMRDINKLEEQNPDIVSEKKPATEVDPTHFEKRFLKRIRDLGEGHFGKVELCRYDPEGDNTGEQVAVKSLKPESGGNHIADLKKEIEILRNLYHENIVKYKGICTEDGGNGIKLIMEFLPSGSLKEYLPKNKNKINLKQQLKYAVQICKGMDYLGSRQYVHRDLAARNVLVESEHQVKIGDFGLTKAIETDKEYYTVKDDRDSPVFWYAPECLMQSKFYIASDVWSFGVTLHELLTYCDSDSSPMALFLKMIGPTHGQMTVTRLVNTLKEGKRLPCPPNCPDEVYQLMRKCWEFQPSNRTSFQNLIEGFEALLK

| Compound | JAK 2 (pKi) (JAK2) | JAK 3 (pKi) (JAK3) | JAK 1 (pKi) (JAK1) | THP-1 IL4 pIC50 [1, 2] | THP-1 IL4 pIC50 [1, 3] |
| --- | --- | --- | --- | --- | --- |
| Cc1cc(Nc2cc3ncccc3c(N[C@@H]3C[C@H]4CC[C@@H](C3)N4CC(N)=O)n2)n[nH]1 [Example 1-6] | B (B represents a pKi value between 9 and 10 (Ki between 1 nM and 0.1 nM)) | C (C represents a pKi value between 7 and 9 (Ki between 100 nM and 1 nM)) | B (B represents a pKi value between 9 and 10 (Ki between 1 nM and 0.1 nM)) | C (C represents a pEC50 value<6.7 (EC50>200 nM)) |  |
| COC(=O)CCN1[C@@H]2CCC[C@H]1C[C@H](Nc1nc(Nc3cc(C)[nH]n3)cc3ncccc13)C2 [Example 1-33] | B (B represents a pKi value between 9 and 10 (Ki between 1 nM and 0.1 nM)) | C (C represents a pKi value between 7 and 9 (Ki between 100 nM and 1 nM)) | B (B represents a pKi value between 9 and 10 (Ki between 1 nM and 0.1 nM)) | C (C represents a pEC50 value<6.7 (EC50>200 nM)) |  |
| Cc1cc(Nc2cc3ncccc3c(N[C@@H]3C[C@H]4CCC[C@@H](C3)N4CC(=O)N[C@@H]3CCOC3=O)n2)n[nH]1 [Example 1-41] | A (A represents a pKi value≥10 (Ki≤0.1 nM)) | B (B represents a pKi value between 9 and 10 (Ki between 1 nM and 0.1 nM)) |  | C (C represents a pEC50 value<6.7 (EC50>200 nM)) |  |
| Cc1cc(Nc2cc3ncccc3c(N[C@@H]3C[C@H]4CCC[C@@H](C3)N4CC(=O)N[C@H]3CCOC3=O)n2)n[nH]1 [Example 1-42] | A (A represents a pKi value≥10 (Ki≤0.1 nM)) | B (B represents a pKi value between 9 and 10 (Ki between 1 nM and 0.1 nM)) |  | C (C represents a pEC50 value<6.7 (EC50>200 nM)) |  |
| Cc1cc(Nc2cc3ncccc3c(N[C@@H]3C[C@H]4CCC[C@@H](C3)N4Cc3ccc(O)cc3)n2)n[nH]1 [Example 1-50] | A (A represents a pKi value≥10 (Ki≤0.1 nM)) | C (C represents a pKi value between 7 and 9 (Ki between 100 nM and 1 nM)) | A (A represents a pKi value≥10 (Ki≤0.1 nM)) | B (B represents a pEC50 value between 6.7 and 7.5 (EC50 between 200 nM and 32 nM)) |  |
| Cc1cc(Nc2cc3ncccc3c(N[C@@H]3C[C@H]4CCC[C@@H](C3)N4S(=O)(=O)C3CNC3)n2)n[nH]1 [Example 4-21] | B (B represents a pKi value between 9 and 10 (Ki between 1 nM and 0.1 nM)) | C (C represents a pKi value between 7 and 9 (Ki between 100 nM and 1 nM)) |  | C (C represents a pEC50 value<6.7 (EC50>200 nM)) |  |
| CCS(=O)(=O)N1[C@@H]2CCC[C@H]1C[C@H](Nc1nc(Nc3cc(C)[nH]n3)cc3nc(CN4CCOCC4)ccc13)C2 [Example 5-23] | A (A represents a pKi value≥10 (Ki≤0.1 nM)) | B (B represents a pKi value between 9 and 10 (Ki between 1 nM and 0.1 nM)) | A (A represents a pKi value≥10 (Ki≤0.1 nM)) | A (A represents a pEC50 value≥7.5 (EC50≤32 nM)) |  |
| CNC(=O)CN1[C@@H]2CC[C@H]1C[C@H](Nc1nc(Nc3cc(C)[nH]n3)cc3ncc(C(=O)OC)cc13)C2 [Example 6-42] | B (B represents a pKi value between 9 and 10 (Ki between 1 nM and 0.1 nM)) | C (C represents a pKi value between 7 and 9 (Ki between 100 nM and 1 nM)) | B (B represents a pKi value between 9 and 10 (Ki between 1 nM and 0.1 nM)) |  | C (C represents a pEC50 value<6.7 (EC50>200 nM)) |
| Cc1cc(Nc2cc3ncc(S(C)(=O)=O)cc3c(N[C@@H]3C[C@H]4CC[C@@H](C3)N4C(=O)CC#N)n2)n[nH]1 [Example 6-51] | B (B represents a pKi value between 9 and 10 (Ki between 1 nM and 0.1 nM)) | C (C represents a pKi value between 7 and 9 (Ki between 100 nM and 1 nM)) | B (B represents a pKi value between 9 and 10 (Ki between 1 nM and 0.1 nM)) |  | C (C represents a pEC50 value<6.7 (EC50>200 nM)) |
